According to US6838580B2, “Opioid derivative” (Teikoku Seiyaku Co., Ltd., priority 2002, dated 2005):

How the values were obtained:
δ-opioid receptor [1] = target: T1, δ-opioid receptor (Mus musculus, UniProt P32300); experiment: Mouse seminiferous tract (MVD) assay, inhibition of electrically stimulated constriction; type: cell-based; details: agonist activity, read-out: MVD (IC50 ± S.E.)
T1 construct: using mouse seminiferous tract in place of guinea pig ileum; from tissue; host or cells: mouse seminiferous tract (vas deferens, MVD), organ bath
T1 sequence (P32300 whole entry): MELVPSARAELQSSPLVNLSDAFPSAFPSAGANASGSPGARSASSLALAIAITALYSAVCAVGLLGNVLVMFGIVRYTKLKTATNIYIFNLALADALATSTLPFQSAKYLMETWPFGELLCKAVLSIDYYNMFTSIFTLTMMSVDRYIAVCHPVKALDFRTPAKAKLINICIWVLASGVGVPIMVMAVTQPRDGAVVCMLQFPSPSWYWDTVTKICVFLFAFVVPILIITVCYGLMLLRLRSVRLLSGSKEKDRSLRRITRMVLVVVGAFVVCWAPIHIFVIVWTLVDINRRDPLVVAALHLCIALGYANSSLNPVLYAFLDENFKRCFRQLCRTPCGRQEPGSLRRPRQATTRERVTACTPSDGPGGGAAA

μ-opioid receptor = target: T2, μ-opioid receptor (Rattus norvegicus, UniProt P33535); experiment: Competitive receptor binding assay, synaptic membrane fraction, [3H]DAGO; details: for Ki: rat brain synaptic membrane, [3H]DAGO, read-out: Affinity of receptor (Ki, nM) μ; for Selectivity δ/μ: ratio Ki δ / Ki μ
T2 construct: synaptic membrane fraction obtained from the rat brain tissue; from tissue; host or cells: Sprague-Dawley rat brain without cerebellum, synaptic membrane (P2) fraction
T2 sequence (P33535 whole entry): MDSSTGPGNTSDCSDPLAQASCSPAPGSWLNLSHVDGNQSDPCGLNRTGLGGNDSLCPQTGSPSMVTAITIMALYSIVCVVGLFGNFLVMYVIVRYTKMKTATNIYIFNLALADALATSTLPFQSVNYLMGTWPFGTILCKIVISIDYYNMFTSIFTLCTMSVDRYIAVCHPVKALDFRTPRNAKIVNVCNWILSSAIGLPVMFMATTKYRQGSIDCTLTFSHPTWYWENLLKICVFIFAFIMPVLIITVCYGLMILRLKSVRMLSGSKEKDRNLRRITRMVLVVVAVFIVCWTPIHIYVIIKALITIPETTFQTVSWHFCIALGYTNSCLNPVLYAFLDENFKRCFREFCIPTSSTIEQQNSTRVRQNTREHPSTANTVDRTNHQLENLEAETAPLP
Description: (§1) Regarding the opioid peptide derivatives synthesized in Examples and Reference Examples, the μ- and δ-opioid receptor affinities were obtained by a competitive receptor assay using the synaptic membrane fraction obtained from the rat brain tissue according to the known methods. That is, Sprague-Dawley rats having an average weight of 150-180 g were killed by decapitation, the brain tissue from which cerebellum had been removed was homogenized in 0.32M sucrose and 1 mM HEPES (pH 7.5) containing 50 μg/ml soybean trypsin inhibitor, fractionated and centrifuged to obtain the synaptic membrane fraction (P2 fraction), which was pre-incubated in 50 mM HEPES (pH 7.5) containing 100 mM NaCl, 0.1 mM GDP and soybean trypsin inhibitor to remove endogenous ligands from the P2 fraction.
(§2) A competitive receptor binding assay (Radiolabeled receptor assay: RRA) based on an exchange reaction between a radioactive ligand for the synaptic membrane fraction and a peptide derivative to be tested was performed by using tritium-labeled [^3H]DAGO which is a μ-opioid receptor agonist and tritium-labeled [^3H]DPDPE which has the high δ-opioid receptor selectivity, and incubating an aliquot of the synaptic membrane with the peptide derivative to be tested for a period of time. Upon this, an exchange reaction between a ligand was performed under constant conditions, the radiation remaining in the synaptic membrane fraction was measured, and an amount of the ligand adsorbed onto the synaptic membrane fraction is calculated. By assuming that binding with a receptor occurs in competition between a radioactive ligand and an end ligand, the concentration (IC50) at which the maximum specific binding of the radioactive ligand is 50% inhibited was obtained, from which the affinity constant (Ki) was calculated by a method of Cheng et al. (Biochem. Pharmcol., 22, 3099(1973)).

δ-opioid receptor [2] = target: T3, δ-opioid receptor (Rattus norvegicus, UniProt P33533); experiment: Competitive receptor binding assay, synaptic membrane fraction, [3H]DPDPE; details: rat brain synaptic membrane, read-out: Affinity of receptor (Ki, nM) δ
T3 construct: synaptic membrane fraction obtained from the rat brain tissue; from tissue; host or cells: Sprague-Dawley rat brain without cerebellum, synaptic membrane (P2) fraction
T3 sequence (P33533 whole entry): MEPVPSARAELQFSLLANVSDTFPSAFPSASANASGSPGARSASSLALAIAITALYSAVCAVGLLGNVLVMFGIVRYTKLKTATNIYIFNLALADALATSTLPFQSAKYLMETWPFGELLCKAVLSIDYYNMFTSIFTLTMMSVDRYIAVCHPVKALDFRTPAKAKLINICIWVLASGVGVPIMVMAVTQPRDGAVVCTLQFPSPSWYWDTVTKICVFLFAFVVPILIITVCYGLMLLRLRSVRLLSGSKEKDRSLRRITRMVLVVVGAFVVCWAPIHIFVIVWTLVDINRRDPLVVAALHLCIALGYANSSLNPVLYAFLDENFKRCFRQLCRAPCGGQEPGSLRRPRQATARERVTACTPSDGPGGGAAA
Description: as §1, §2

SD Male rats [3] = experiment: Analgesic effect, Randoll-Seritto hind limb pressure method, subcutaneous administration; type: in vivo; details: rat, s.c., 5 mg/kg
Description: (§3) SD Male rats, weighing 110 to 130 g, were used. One group consisted of five rats. The analgesic effects were examined by a Randoll-Seritto method. […] The threshold was expressed in mm Hg. During the measurement, the upper limit of the pressure applied to a hind limb was 100 mm Hg in order to avoid damage of the tissues.
(§4) 2) When administered intravenously (i.v.), a volume of 2 ml/kg weight was administered to a tail vein and, when administered subcutaneously (s.c.), a volume of 2 ml/kg weight was subcutaneously administered to the back. In the case of intravenous administration, a 1 mg/kg, 3 mg/kg or 10 mg/kg compound of Ex.1 administration group, a 1 mg/kg, 3 mg/kg or 10 mg/kg compound of Ex.4 administration group, a 2 ml/kg physiological saline administration group and a 5 mg/kg morphine hydrochloride administration group were made, respectively. In the case of subcutaneous administration, a 10 mg/kg, 30 mg/kg or 100 mg/kg compound of Ex.1 administration group, a 10 mg/kg, 30 mg/kg or 100 mg/kg compound of Ex.4 administration group, a 2 ml/kg physiological saline administration group and a 5 mg/kg morphine hydrochloride administration group were made, respectively. Observation of the analgesic action was performed 15 minutes, 30 minutes, 1 hour and 2 hours after administration in the case of intravenous administration, 30 minutes, 1 hour, 2 hours and 3 hours after administration in the case of subcutaneous administration, respectively.
(§5) In order to perform a significant difference test between respective administration groups and control groups, and between values at respective times before administration and after administration, a Dunnet multiple comparative test method was used. In the statistical processing for performing a significant difference test between morphine hydrochloride administration groups and control groups, Student t-test was used. For performing a significant difference test between values at respective times before administration and after administration in morphine hydrochloride administration groups, a Dunnet multiple comparative test method was used. A significant level was at 5 or lower % risk rate (two-tailed test).

SD Male rats [4] = experiment: Analgesic effect, Randoll-Seritto hind limb pressure method, intravenous administration; type: in vivo; details: rat, i.v., 5 mg/kg
Description: as §3, §4, §5

SD Male rats [5] = experiment: Analgesic effect, Randoll-Seritto hind limb pressure method, intracerebroventricular administration; type: in vivo; details: rat, i.c.v., 3 μg/animal
Excerpt: as §3
1) When performing intracerebroventricular administration (i.c.v.), a rat was fixed to a brain stereotactic fixing apparatus under slight ether anesthesia, the skin at a head was dissected, and an administration cannula was inserted into a place at a transverse of […] from a bregma position and a depth of 3.5 to 4.0 mm. The administration volume was 10 μl/animal. Observation of the analgesic action was performed before administration, and at 30 minutes, and 1, 2, 3, 4 and 5 hours after administration. Doses of both compounds were 0.1, 1 and 10 μg/animal. Separately, a group to which 5 mg/kg of naltrexone hydrochloride was administered subcutaneously immediately after compound of Ex.1 10 μg/animal i.c.v and a group to which 5 mg/kg of naltrexone hydrochloride was administered subcutaneously immediately after compound of Ex.4 10 μg/animal i.c.v. was made. In addition, as morphine hydrochloride at a dose of 3 μg/animal i.c.v. group was used as a positive control group and a physiological saline 10 μl/animal i.c.v. group as a control group was made, respectively.
as §5

| Structure (SMILES) | IC50 (δ-opioid receptor [1]) [nM] | Ki (μ-opioid receptor) [nM] | Selectivity δ/μ (μ-opioid receptor) | Ki (δ-opioid receptor [2]) [nM] | also measured |
| --- | --- | --- | --- | --- | --- |
| Cc1cc(O)cc(C)c1C[C@H](N)C(=O)NCCNC(=O)[C@@H](N)Cc1c(C)cc(O)cc1C [Ex.5, 1,2-Bis(Dmt-amino)ethane.2TFA] | > 10000 | 1.43 ± 0.01 | 81 | 116 ± 10.6 |  |
| Cc1cc(O)cc(C)c1C[C@H](N)C(=O)NCCCCNC(=O)[C@@H](N)Cc1ccc(O)cc1 [Ex.3, 1-(Dmt-amino)-4-Tyr-aminobutane.2HCl] | > 10000 | 0.38 ± 0.02 | 349 | 133 ± 18 |  |
| N[C@@H](Cc1ccc(O)cc1)C(=O)NCCCCCCNC(=O)[C@@H](N)Cc1ccc(O)cc1.O=C(O)C(F)(F)F.O=C(O)C(F)(F)F [Ref.ex.3, 1,6-Bis(Tyr-amino)hexane.2TFA, reference compound] |  | 410 ± 85 | 53 | 21900 |  |
| Cc1cc(O)cc(C)c1C[C@H](N)C(=O)NCCCCNC(=O)[C@@H](N)Cc1ccccc1 [Ex.2, 1-Dmt-amino-4-Phe-aminobutane.2HCl] | > 10000 | 0.52 ± 0.089 | 117 | 61 ± 5.7 |  |
| N[C@@H](Cc1ccc(O)cc1)C(=O)NCCNC(=O)[C@@H](N)Cc1ccc(O)cc1 [Ref.ex.4, 1,2-Bis(Tyr-amino)ethane.2TFA, reference compound] |  | 648 ± 95 | 13 | 8290 |  |
| N[C@@H](Cc1ccccc1)C(=O)NCCCCNC(=O)[C@@H](N)Cc1ccccc1 [Ref.ex.1, 1,4-Bis(Phe-amino)butane.2HCl, reference compound] |  | 1530 | 30 | 46200 |  |
| N[C@@H](Cc1ccc(O)cc1)C(=O)NCCCCCCCCNC(=O)[C@@H](N)Cc1ccc(O)cc1 [Ref.ex.5, 1,8-Bis(Tyr-amino)octane.2TFA, reference compound] |  | 399 ± 40.5 |  | 6150 |  |
| N[C@@H](Cc1ccc(O)cc1)C(=O)NCCCCNC(=O)[C@@H](N)Cc1ccc(O)cc1 [Ref.ex.2, 1,4-Bis(Tyr-amino)butane.2HCl, reference compound] |  | 309 ± 104 | 21 | 6500 |  |
| Cc1cc(O)cc(C)c1C[C@H](N)C(=O)NCCCCCCCCNC(=O)[C@@H](N)Cc1c(C)cc(O)cc1C [Ex.6, 1,8-Bis(Dmt-amino)octane.2TFA] | > 10000 | 0.19 ± 0.024 | 78 | 14.8 ± 3 |  |
| CN1CC[C@]23c4c5ccc(O)c4O[C@H]2[C@@H](O)C=C[C@H]3[C@H]1C5.Cl [Morphine, morphine hydrochloride, reference compound] |  |  |  |  | Change in escape reaction threshold / analgesic effect, in words (SD Male rats [3]): significant increase was recognized 30 minutes, 1 hour and 2 hours after administration; Threshold (mmHg) (SD Male rats [3]; 0.5 hr): 87 ± 2^##,$$ mmHg; Threshold (mmHg) (SD Male rats [3]; 1 hr): 85 ± 6^##,$$ mmHg; Threshold (mmHg) (SD Male rats [3]; 2 hr): 71 ± 7^#,$ mmHg; Threshold (mmHg) (SD Male rats [3]; 3 hr): 61 ± 7 mmHg; Threshold (mmHg) (SD Male rats [3]; before administration): 48 ± 2 mmHg; Change in escape reaction threshold / analgesic effect, in words (SD Male rats [4]): significant increase in the escape reaction threshold was recognized 15 minutes, 30 minutes and 1 hour after administration; Threshold (mmHg) (SD Male rats [4]; 0.25 hr): 83 ± 6^##,$$ mmHg; Threshold (mmHg) (SD Male rats [4]; 0.5 hr): 79 ± 7^##,$$ mmHg; Threshold (mmHg) (SD Male rats [4]; 1 hr): 78 ± 6^##,$$ mmHg; Threshold (mmHg) (SD Male rats [4]; 2 hr): 65 ± 7 mmHg; Threshold (mmHg) (SD Male rats [4]; before administration): 49 ± 2 mmHg; Change in escape reaction threshold / analgesic effect, in words (SD Male rats [5]): significant increase in the threshold was recognized 30 minutes, 1 hour and 3 hours after administration; Threshold (mmHg) (SD Male rats [5]; 0.5 hr): 59 ± 4 mmHg; Threshold (mmHg) (SD Male rats [5]; 1 hr): 59 ± 3 mmHg; Threshold (mmHg) (SD Male rats [5]; 2 hr): 52 ± 3 mmHg; Threshold (mmHg) (SD Male rats [5]; 3 hr): 52 ± 3 mmHg; Threshold (mmHg) (SD Male rats [5]; 4 hr): 49 ± 2 mmHg; Threshold (mmHg) (SD Male rats [5]; 5 hr): 51 ± 2 mmHg; Threshold (mmHg) (SD Male rats [5]; before administration): 46 ± 1 mmHg |
